pIC50: −log10 of the molar value. Activity calls are given as the source filed them. The rule behind the calls is not given here.
How the values were obtained:
[1] = system: 4T1; test: Anticancer activity against mouse 4T1 cells assessed as inhibition of cell growth incubated for 24 hrs by CCK-8 assay; type: functional, cell-based; details: 4T1, 24 h
[2] = system: 4T1; test: Anticancer activity against mouse 4T1 cells assessed as inhibition of cell growth incubated for 72 hrs by CCK-8 assay; type: functional, cell-based; details: 4T1, 72 h
[3] = system: 4T1; test: Anticancer activity against mouse 4T1 cells assessed as inhibition of cell growth incubated for 48 hrs by CCK-8 assay; type: functional, cell-based; details: 4T1, 48 h
[4] = system: 4T1; test: Induction of mitochondrial membrane potential loss in mouse 4T1 cells assessed as green fluorescence at 50 uM incubated for 24 hrs by JC-1 staining based flow cytometric analysis (reference value: 11.7%); type: cell-based
[5] = system: 4T1; test: Induction of mitochondrial membrane potential loss in mouse 4T1 cells assessed as red fluorescence at 50 uM incubated for 24 hrs by JC-1 staining based flow cytometric analysis (reference value: 87.9%); type: cell-based
[6] = system: 4T1; test: Induction of apoptosis in mouse 4T1 cells assessed as apoptotic rate at 250 micromol/L incubated for 24 hrs by Annexin-V/PI staining based flow cytometry relative to control; type: functional; details: dose 250 µmol/L, at 250 µM
[7] = system: 4T1; test: Inhibition of cell migration in mouse 4T1 cells assessed as reduction in wound healing incubated for 24 hrs by microscopic analysis; type: functional, cell-based
[8] = system: 4T1; test: Induction of apoptosis in mouse 4T1 cells assessed as apoptotic rate at 50 micromol/L incubated for 24 hrs by Annexin-V/PI staining based flow cytometry relative to control; type: functional; details: dose 50 µmol/L, at 50 µM
[9] = system: 4T1; test: Induction of apoptosis in mouse 4T1 cells assessed as apoptotic rate at 1000 micromol/L incubated for 24 hrs by Annexin-V/PI staining based flow cytometry relative to control; type: functional; details: dose 1000 µmol/L, at 1000 µM
[10] = Toxicity in BALB/c mouse implanted with mouse 4T1 cells assessed as effect on CREA level at 0.2 mmol/Kg, po administered once every day for 14 days by routine blood analysis; type: organism-based; details: in vivo, 336 h, time 14 day
[11] = Toxicity in BALB/c mouse implanted with mouse 4T1 cells assessed as change in kidney histopathology at 0.2 mmol/Kg, po administered once every day for 14 days; type: organism-based; details: in vivo, 336 h, time 14 day
[12] = Toxicity in BALB/c mouse implanted with mouse 4T1 cells assessed as splenic edema at 0.2 mmol/Kg, po administered once every day for 14 days; type: organism-based; details: in vivo, 336 h, time 14 day
[13] = Prodrug conversion in carboxylesterase (unknown origin) solution assessed as drug hydrolysis by measuring stachydrine release at 3 to 20 hrs; type: ADME, Homo sapiens; details: time 3-20 hrs
[14] = system: 4T1; test: Induction of mitochondrial membrane potential loss in mouse 4T1 cells assessed as green fluorescence at 250 uM incubated for 24 hrs by JC-1 staining based flow cytometric analysis (reference value: 11.7%); type: cell-based
[15] = Prodrug conversion in serum (unknown origin) assessed as drug hydrolysis by measuring stachydrine release at 3 to 20 hrs; type: ADME, cell-free; details: time 3-20 hrs
[16] = Toxicity in BALB/c mouse implanted with mouse 4T1 cells assessed as increase in white blood cells at 0.2 mmol/Kg, po administered once every day for 14 days by routine blood analysis; type: organism-based; details: in vivo, 336 h, time 14 day
[17] = system: 4T1; test: Induction of mitochondrial membrane potential loss in mouse 4T1 cells assessed as red fluorescence at 250 uM incubated for 24 hrs by JC-1 staining based flow cytometric analysis (Rvb= 87.9%); type: cell-based
[18] = Toxicity in BALB/c mouse implanted with mouse 4T1 cells assessed as increase in splenic red pulp at 0.2 mmol/Kg, po administered once every day for 14 days; type: organism-based; details: in vivo, 336 h, time 14 day
[19] = Toxicity in BALB/c mouse implanted with mouse 4T1 cells assessed as blurred spleen morphology at 0.2 mmol/Kg, po administered once every day for 14 days; type: organism-based; details: in vivo, 336 h, time 14 day
[20] = system: 4T1; test: Antitumor activity against mouse 4T1 cells implanted in BALB/c mouse assessed as change in tumor weight at 0.2 mmol/Kg, po administered once every day for 14 days; type: functional, organism-based; details: time 14.0 day
[21] = system: 4T1; test: Antitumor activity against mouse 4T1 cells implanted in BALB/c mouse assessed as tumor cell shrinkage at 0.2 mmol/Kg, po administered once every day for 14 days by histological staining based analysis; type: functional, organism-based; details: time 14.0 day
[22] = Toxicity in BALB/c mouse implanted with mouse 4T1 cells assessed as increase in lymphocytes at 0.2 mmol/Kg, po administered once every day for 14 days by routine blood analysis; type: organism-based; details: in vivo, 336 h, time 14 day
[23] = Toxicity in BALB/c mouse implanted with mouse 4T1 cells assessed as effect on BUN level at 0.2 mmol/Kg, po administered once every day for 14 days by routine blood analysis; type: organism-based; details: in vivo, 336 h, time 14 day
[24] = Toxicity in BALB/c mouse implanted with mouse 4T1 cells assessed as change in lung histopathology at 0.2 mmol/Kg, po administered once every day for 14 days; type: organism-based; details: in vivo, 336 h, time 14 day
[25] = Toxicity in BALB/c mouse implanted with mouse 4T1 cells assessed as increase in ALT level at 0.2 mmol/Kg, po administered once every day for 14 days by routine blood analysis; type: organism-based; details: in vivo, 336 h, time 14 day
[26] = system: 4T1; test: Antitumor activity against mouse 4T1 cells implanted in BALB/c mouse assessed as tumor growth inhibition at 0.2 mmol/Kg, po administered once every day for 14 days relative to control; type: functional; details: 4T1, 336 h, time 14 day, read-out: TGI
[27] = Toxicity in BALB/c mouse implanted with mouse 4T1 cells assessed as body weight loss at 0.2 mmol/Kg, po administered once daily for 14 days; type: organism-based; details: in vivo, 336 h, time 14 day
[28] = Toxicity in BALB/c mouse implanted with mouse 4T1 cells assessed as change in heart histopathology at 0.2 mmol/Kg, po administered once every day for 14 days; type: organism-based; details: in vivo, 336 h, time 14 day
[29] = Toxicity in BALB/c mouse implanted with mouse 4T1 cells assessed as reduction in spleen index at 0.2 mmol/Kg, po administered once every day for 14 days relative to control; type: organism-based; details: in vivo, 336 h, time 14 day
[30] = Toxicity in BALB/c mouse implanted with mouse 4T1 cells assessed as increase in neutrophil granulocytes at 0.2 mmol/Kg, po administered once every day for 14 days by routine blood analysis; type: organism-based; details: in vivo, 336 h, time 14 day
[31] = Toxicity in BALB/c mouse implanted with mouse 4T1 cells assessed as increase in monocytes at 0.2 mmol/Kg, po administered once every day for 14 days by routine blood analysis; type: organism-based; details: in vivo, 336 h, time 14 day
[32] = Toxicity in BALB/c mouse implanted with mouse 4T1 cells assessed as increase in AST level at 0.2 mmol/Kg, po administered once every day for 14 days by routine blood analysis; type: organism-based; details: in vivo, 336 h, time 14 day
[33] = Prodrug conversion in cell culture medium containing 10% FBS assessed as drug hydrolysis by measuring stachydrine release at 3 to 20 hrs; type: ADME; details: cattle; time 3-20 hrs
[34] = Toxicity in BALB/c mouse implanted with mouse 4T1 cells assessed as change in liver histopathology at 0.2 mmol/Kg, po administered once every day for 14 days; type: organism-based; details: in vivo, 336 h, time 14 day
[35] = Toxicity in BALB/c mouse implanted with mouse 4T1 cells assessed as increase in mean platelet volume at 0.2 mmol/Kg, po administered once every day for 14 days by routine blood analysis; type: organism-based; details: in vivo, 336 h, time 14 day
[36] = system: 4T1; test: Antitumor activity against mouse 4T1 cells implanted in BALB/c mouse assessed as tumor cell necrosis at 0.2 mmol/Kg, po administered once every day for 14 days by histological staining based analysis; type: functional, organism-based; details: time 14.0 day
[37] = system: 4T1; test: Induction of apoptosis in mouse 4T1 cells assessed as apoptotic rate at 8000 micromol/L incubated for 24 hrs by Annexin-V/PI staining based flow cytometry relative to control; type: functional; details: dose 8000 µmol/L, at 8000 µM
[38] = system: 4T1; test: Induction of mitochondrial membrane potential loss in mouse 4T1 cells assessed as red fluorescence at 4000 uM incubated for 24 hrs by JC-1 staining based flow cytometric analysis (Rvb= 87.9%); type: cell-based
[39] = system: 4T1; test: Induction of apoptosis in mouse 4T1 cells assessed as apoptotic rate at 4000 micromol/L incubated for 24 hrs by Annexin-V/PI staining based flow cytometry relative to control; type: functional; details: dose 4000 µmol/L, at 4000 µM
[40] = system: 4T1; test: Induction of mitochondrial membrane potential loss in mouse 4T1 cells assessed as green fluorescence at 4000 uM incubated for 24 hrs by JC-1 staining based flow cytometric analysis (reference value: 11.7%); type: cell-based
[41] = system: 4T1; test: Induction of apoptosis in mouse 4T1 cells assessed as apoptotic rate at 2 micromol/L incubated for 24 hrs by Annexin-V/PI staining based flow cytometry relative to control; type: functional; details: dose 2 µmol/L, at 2 µM
[42] = system: 4T1; test: Induction of apoptosis in mouse 4T1 cells assessed as apoptotic rate at 0.04 micromol/L incubated for 24 hrs by Annexin-V/PI staining based flow cytometry relative to control; type: functional; details: dose 0.04 µmol/L, at 0.04 µM
[43] = system: 4T1; test: Induction of apoptosis in mouse 4T1 cells assessed as apoptotic rate at 0.3 micromol/L incubated for 24 hrs by Annexin-V/PI staining based flow cytometry relative to control; type: functional; details: dose 0.3 µmol/L, at 0.3 µM

CCCCCCOC(=O)C1CCC[N+]1(C)C (stereo not drawn)
pIC50 [1]: 2.59 | pIC50 [2]: 2.96 | pIC50 [3]: 2.81

CCOC(=O)C1CCC[N+]1(C)C (stereo not drawn)
pIC50 [1]: 2.77 | pIC50 [2]: 2.10 | pIC50 [3]: 1.85

N#CC(C#N)=NNc1cccc(Cl)c1
Activity [4]: 48.4% | Activity [5]: 51.1%

CCCCCCCCOC(=O)C1CCC[N+]1(C)C.[Cl-] (stereo not drawn)
Activity [6]: 69.9% | inhibition [7]: Dose-Dependent Effect | Activity [8]: 36.82% | Activity [9]: 80.8% | Activity [10]: Non-Toxic | Activity [11]: Non-Toxic | Activity [12]: Toxic | Drug metabolism [13]: Metabolite_Detected | Activity [14]: 53.5% | Drug metabolism [15]: Metabolite_Detected | pIC50 [1]: 3.29 | Activity [16]: Non-Toxic | Activity [17]: 46.5% | Activity [18]: Toxic | Activity [19]: Toxic | Activity [20]: Active | Activity [21]: Active | Activity [22]: Non-Toxic | Activity [23]: Non-Toxic | Activity [24]: Non-Toxic | Activity [25]: Toxic | pIC50 [2]: 3.85 | inhibition in vivo at 200 µmol/kg [26]: 51.5% | Activity [27]: Toxic | Activity [28]: Non-Toxic | Activity [29]: Toxic | Activity [30]: Non-Toxic | Activity [31]: Non-Toxic | Activity [32]: Toxic | Drug metabolism [33]: Metabolite_Detected | Activity [34]: Non-Toxic | Activity [35]: Non-Toxic | Activity [36]: Active | pIC50 [3]: 3.60

CCCCOC(=O)C1CCC[N+]1(C)C.[Cl-] (stereo not drawn)
Activity [37]: 51.28% | Activity [9]: 29.06% | Activity [10]: Non-Toxic | Activity [11]: Non-Toxic | Activity [12]: Toxic | Drug metabolism [13]: Metabolite_Detected | Drug metabolism [15]: Metabolite_Detected | pIC50 [1]: 2.20 | Activity [16]: Non-Toxic | Activity [18]: Toxic | Activity [19]: Toxic | Activity [20]: Active | Activity [21]: Active | Activity [22]: Non-Toxic | Activity [23]: Non-Toxic | Activity [24]: Non-Toxic | Activity [25]: Toxic | pIC50 [2]: 2.29 | inhibition in vivo at 200 µmol/kg [26]: 45.1% | Activity [38]: 60.9% | Activity [27]: Toxic | Activity [28]: Non-Toxic | Activity [39]: 39.8% | Activity [29]: Toxic | Activity [30]: Non-Toxic | Activity [31]: Non-Toxic | Activity [32]: Toxic | Drug metabolism [33]: Metabolite_Detected | Activity [34]: Non-Toxic | Activity [35]: Non-Toxic | Activity [36]: Active | pIC50 [3]: 2.20 | Activity [40]: 38.9%

CCCCCCCCCCCCCCOC(=O)C1CCC[N+]1(C)C (stereo not drawn)
pIC50 [1]: 3.78 | pIC50 [2]: 4.24 | pIC50 [3]: 3.78

CCCCCCCCCCCCCCCCCCOC(=O)C1CCC[N+]1(C)C (stereo not drawn)
pIC50 [1]: 5.62 | pIC50 [2]: 5.70 | pIC50 [3]: 5.56

CCCCCCCCCCCCCCCCOC(=O)C1CCC[N+]1(C)C.[Cl-] (stereo not drawn)
Activity [41]: 72% | Activity [42]: 52% | Drug metabolism [13]: Metabolite_Detected | Drug metabolism [15]: Metabolite_Detected | pIC50 [1]: 6.07 | Activity [43]: 62.1% | pIC50 [2]: 6.47 | Drug metabolism [33]: Metabolite_Detected | pIC50 [3]: 6.15

CCCCCCCCCCOC(=O)C1CCC[N+]1(C)C (stereo not drawn)
pIC50 [1]: 3.69 | pIC50 [2]: 4.01 | pIC50 [3]: 3.87
